The target of series [1] is σ1 receptor (Homo sapiens, UniProt Q99720). Description: σ1 receptor binding at 10 μM. As to the method: (§1) All derivatives were evaluated for binding to the NR2B site and other neuro-targets. Table 1 provides the structures of the derivatives, molecular weight, calculated Log D values, the structure-activity relationship, and binding data.
The target in series [2] is σ2 receptor (Homo sapiens, UniProt Q5BJF2). Description: σ2 receptor binding at 10 μM. As to the method: as §1
σ2 receptor, sequence (Q5BJF2 whole entry, species assumed): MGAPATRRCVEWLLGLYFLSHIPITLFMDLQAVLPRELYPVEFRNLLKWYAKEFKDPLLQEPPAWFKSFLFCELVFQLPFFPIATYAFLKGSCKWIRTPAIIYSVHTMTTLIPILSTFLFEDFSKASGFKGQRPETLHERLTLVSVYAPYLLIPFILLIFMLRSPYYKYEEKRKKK
The target in series [3] is NR2B subunits in NMDA receptors (Rattus norvegicus, UniProt P35439+Q00960). Description: PET imaging of brain in rats (baseline, preblock, displacement). The settings on record: for brain radioactivity uptake / washout of brain radioactivity: rats at baseline; for brain radioactivity uptake: i.v. radioligand, at 5 minutes; for washout of brain radioactivity: over 90 minutes; for effect of pretreatment on brain radioactivity uptake / displacement of radioligand: radioligand [^11C]NR2B-SMe; for displacement of radioligand: given at 15 min after radioligand, over 90 min.
NR2B subunits in NMDA receptors (Rattus norvegicus, UniProt P35439+Q00960), sequence (Q00960 27-1482, other chains not shown): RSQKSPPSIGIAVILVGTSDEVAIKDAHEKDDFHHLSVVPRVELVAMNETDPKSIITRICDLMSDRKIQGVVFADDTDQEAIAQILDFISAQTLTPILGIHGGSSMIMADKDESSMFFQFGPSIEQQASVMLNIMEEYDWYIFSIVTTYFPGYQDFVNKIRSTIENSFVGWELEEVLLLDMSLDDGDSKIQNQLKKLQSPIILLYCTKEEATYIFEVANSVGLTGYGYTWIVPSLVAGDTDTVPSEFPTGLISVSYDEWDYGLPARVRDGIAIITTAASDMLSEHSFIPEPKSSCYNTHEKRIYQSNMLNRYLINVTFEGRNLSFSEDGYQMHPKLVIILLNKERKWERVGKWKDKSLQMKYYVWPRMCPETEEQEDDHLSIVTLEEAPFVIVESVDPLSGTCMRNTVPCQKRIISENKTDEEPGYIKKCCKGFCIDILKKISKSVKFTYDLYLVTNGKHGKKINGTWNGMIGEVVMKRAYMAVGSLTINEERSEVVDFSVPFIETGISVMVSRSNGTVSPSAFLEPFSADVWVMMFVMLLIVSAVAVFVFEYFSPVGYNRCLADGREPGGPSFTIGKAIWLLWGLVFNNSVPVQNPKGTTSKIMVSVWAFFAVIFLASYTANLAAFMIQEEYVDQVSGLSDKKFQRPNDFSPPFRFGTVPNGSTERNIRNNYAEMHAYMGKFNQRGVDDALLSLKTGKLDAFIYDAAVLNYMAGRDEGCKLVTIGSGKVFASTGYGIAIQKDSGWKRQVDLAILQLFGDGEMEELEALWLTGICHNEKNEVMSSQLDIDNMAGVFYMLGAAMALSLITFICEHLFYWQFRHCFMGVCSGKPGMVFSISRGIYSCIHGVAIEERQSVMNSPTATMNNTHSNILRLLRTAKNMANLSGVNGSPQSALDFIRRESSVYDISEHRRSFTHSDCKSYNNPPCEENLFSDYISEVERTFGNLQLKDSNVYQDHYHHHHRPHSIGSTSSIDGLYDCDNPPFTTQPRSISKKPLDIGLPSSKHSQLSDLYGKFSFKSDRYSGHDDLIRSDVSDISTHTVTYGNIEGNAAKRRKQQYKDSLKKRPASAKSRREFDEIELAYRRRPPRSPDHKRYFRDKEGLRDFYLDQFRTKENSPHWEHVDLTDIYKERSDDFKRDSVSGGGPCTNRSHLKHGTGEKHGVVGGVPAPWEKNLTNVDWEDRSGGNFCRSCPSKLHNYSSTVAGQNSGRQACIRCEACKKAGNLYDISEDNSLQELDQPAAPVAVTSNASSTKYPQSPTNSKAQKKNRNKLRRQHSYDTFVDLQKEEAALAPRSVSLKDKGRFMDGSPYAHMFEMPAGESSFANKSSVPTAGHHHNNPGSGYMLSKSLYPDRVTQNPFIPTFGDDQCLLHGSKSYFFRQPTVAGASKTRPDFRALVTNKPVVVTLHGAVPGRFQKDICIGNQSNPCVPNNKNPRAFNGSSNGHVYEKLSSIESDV
Experimental: Displacement studies where NR2B-SMe or eliprodil was given at 15 min after radioligand were also performed.

Series [4] deals with NR2B site (Homo sapiens, UniProt Q05586+Q13224). Description: binding to the NR2B site (Ki, automatic and manual). The settings on record: for affinity for NR2B: stated in words. As to the method: as §1
NR2B site, sequence (Q13224 27-1484, other chains not shown): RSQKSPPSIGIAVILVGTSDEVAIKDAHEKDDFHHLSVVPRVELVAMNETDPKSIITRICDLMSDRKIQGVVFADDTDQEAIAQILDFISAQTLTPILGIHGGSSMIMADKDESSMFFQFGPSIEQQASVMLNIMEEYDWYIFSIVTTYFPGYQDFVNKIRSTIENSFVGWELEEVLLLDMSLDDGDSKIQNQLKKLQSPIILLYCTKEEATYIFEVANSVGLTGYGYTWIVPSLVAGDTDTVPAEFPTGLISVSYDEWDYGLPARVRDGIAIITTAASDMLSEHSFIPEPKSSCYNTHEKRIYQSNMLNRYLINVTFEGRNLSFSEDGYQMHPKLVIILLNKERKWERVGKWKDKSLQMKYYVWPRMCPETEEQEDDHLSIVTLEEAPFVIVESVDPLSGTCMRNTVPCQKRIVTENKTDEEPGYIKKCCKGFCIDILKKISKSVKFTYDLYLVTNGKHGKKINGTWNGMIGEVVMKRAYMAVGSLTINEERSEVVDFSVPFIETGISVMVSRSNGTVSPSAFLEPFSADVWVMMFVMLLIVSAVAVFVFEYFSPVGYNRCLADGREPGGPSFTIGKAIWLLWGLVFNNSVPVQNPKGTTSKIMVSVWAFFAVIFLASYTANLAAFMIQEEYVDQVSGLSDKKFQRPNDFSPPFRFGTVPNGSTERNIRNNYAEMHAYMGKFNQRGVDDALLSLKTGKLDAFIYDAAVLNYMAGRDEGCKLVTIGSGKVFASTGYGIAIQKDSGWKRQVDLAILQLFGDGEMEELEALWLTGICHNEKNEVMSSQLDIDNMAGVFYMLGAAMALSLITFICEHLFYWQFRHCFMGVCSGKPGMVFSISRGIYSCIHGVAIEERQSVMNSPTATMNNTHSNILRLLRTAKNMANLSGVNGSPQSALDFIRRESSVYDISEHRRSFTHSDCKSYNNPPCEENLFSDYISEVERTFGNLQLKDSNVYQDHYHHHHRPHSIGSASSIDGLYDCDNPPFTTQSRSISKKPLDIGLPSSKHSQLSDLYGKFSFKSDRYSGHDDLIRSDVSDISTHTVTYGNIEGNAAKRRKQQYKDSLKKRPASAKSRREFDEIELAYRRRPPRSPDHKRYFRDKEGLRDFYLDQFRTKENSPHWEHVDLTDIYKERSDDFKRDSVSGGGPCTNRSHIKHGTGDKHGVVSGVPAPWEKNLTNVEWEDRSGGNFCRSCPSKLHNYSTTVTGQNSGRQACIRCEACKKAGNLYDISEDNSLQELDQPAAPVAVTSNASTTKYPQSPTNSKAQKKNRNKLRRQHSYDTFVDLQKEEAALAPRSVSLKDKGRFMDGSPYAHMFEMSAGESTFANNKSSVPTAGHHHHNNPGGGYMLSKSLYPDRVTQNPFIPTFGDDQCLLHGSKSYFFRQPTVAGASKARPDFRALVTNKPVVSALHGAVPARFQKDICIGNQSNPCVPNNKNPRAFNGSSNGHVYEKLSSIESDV
Series [5] relates to NR2B subunits in NMDA receptors. Description: Brain PET imaging (VT/fP) in monkey (baseline, Co101244 block, self-block). In kind it is in vivo. An excerpt:
Table 2 provides the normalized total volume of distribution (VT/fP) (ml/cm^3) for whole brain and specific regions of the brain at baseline, Co101244 (1-[2-(4-hydroxyphenoxy)ethyl]-4-[(4-methylphenyl)methyl]-4-piperidinol) block and self-block.

Series [6] has the same test system. The description is as above. In kind it is in vivo. The source holds these as a separate data set.
Where [7] appears, read: automatic, read-out: Ki (nM), automatic.
Setting [8] is: manual, read-out: Ki (nM), manual.
[9] abbreviates: rats, 0.01-3 mg/kg, i.v. at 15 min before radioligand injection.

This note sets out measurements from US20210094920A1, “NR2B LIGANDS; METHOD OF MAKING; AND USE THEREOF” (THE UNITED STATES OF AMERICA, AS REPRESENTED BY THE …, priority 2018, published 2021).

Like-named read-outs stand apart in the source and are kept apart here.

By inhibition is commonly meant the percentage by which the read-out fell short of the control. As a reminder, the Ki is a dissociation constant, usually derived from enzyme kinetics or from competition with a known ligand.

σ1 receptor, sequence (Q99720 whole entry): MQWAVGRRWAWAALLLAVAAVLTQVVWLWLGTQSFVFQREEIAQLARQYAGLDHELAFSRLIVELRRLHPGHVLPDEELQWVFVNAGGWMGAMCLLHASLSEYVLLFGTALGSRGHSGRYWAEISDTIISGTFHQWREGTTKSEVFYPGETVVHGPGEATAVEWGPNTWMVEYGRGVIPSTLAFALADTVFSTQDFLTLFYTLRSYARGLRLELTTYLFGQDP

In the case of `COc1ccc2c(c1)CCN(CCC#Cc1ccccn1)CC2O` (stereo not drawn) [Compound 7], the inhibition at 10 µM in series [1] is 66.4%; in series [2], 74.2%.
As to `COc1ccc2c(c1)CCN(CCCCc1ccc(C)cc1)CC2O` (stereo not drawn) [[^11C]NR2B-Me, 7-methoxy-3-(4-(4-methylphenyl)butyl)-2,3,4,5-tetrahydro-1H-benzo[d]azepin-1-ol], in series [3], the brain radioactivity uptake worked out at 3.0 SUV and the “washout of brain radioactivity” value is given as “slow washout”.
`COc1ccc2c(c1)CCN(CCCCc1ccc(Br)cc1)CC2O` (stereo not drawn) [Compound 5]: the inhibition at 10 µM in series [1] is 83.7%; in series [2], 90%.
On the same counts, the results for `COc1ccc2c(c1)CCN(CCCCc1ccc(F)cc1)CC2O` (stereo not drawn) [Compound 6] are 57.9% and 76.9%.
Turning to `CC(C(O)c1ccc(O)cc1)N1CCC(Cc2ccccc2)CC1` (stereo not drawn) [ifendopril, reference compound], in series [3] (rats, 3 mg/kg i.v), the “effect of pretreatment on brain radioactivity uptake” value (shortened to “effect of pretreatment”) is on record as “blocked brain radioactivity uptake to the similar high extent”.
In the case of `COc1ccc2c(c1)CCN(CCCCc1ccccc1)CC2O` (stereo not drawn) [Compound 1, 7-methoxy-3-(4-phenylbutyl)-2,3,4,5-tetrahydro-1H-benzo[d]azepin-1-ol, reference compound], the Ki in series [4] (setting [7]) came to 43.5 nM; in series [4] (setting [8]), 9.8 nM. The figures for the inhibition at 10 µM in series [1] and in series [2] were 89.1% and 87.8%, respectively.
Regarding `COc1ccc2c(c1)CCN(CCC#Cc1cccc(F)n1)CC2O` (stereo not drawn) [Compound 8], the figures for the inhibition at 10 µM in series [1] and in series [2] were 40.8% and 56.4%, respectively.
Regarding `OC(CN1CCC(Cc2ccc(F)cc2)CC1)c1ccc(Cl)cc1` (stereo not drawn) [Eliprodil, reference compound], in series [3] (rats, 3 mg/kg i.v), the “effect of pretreatment” value is given as “blocked brain radioactivity uptake to the similar high extent”. In series [3] (rats), the displacement of radioligand result is reported as “failed to displace radioligand”.
Turning to `COc1ccc(CCN2CCN(CCCc3ccccc3)CC2)cc1OC` [SA 4503, reference compound], the “effect of pretreatment” value in series [3] (setting [9]) was “blocked brain radioactivity uptake in a dose-dependent manner”.
`COc1ccc2c(c1)CCN(CCCCc1ccc(C)cc1)C[C@@H]2O` [[^11C]NR2B-MeI, (R)(−)7-methoxy-3-(4-(4-methylphenyl)butyl)-2,3,4,5-tetrahydro-1H-benzo[d]azepin-1-ol]: the “Normalized Total Volume of Distribution (VT/fp)” value (“Normalized Total Volume” for short) in series [5] (Amygdala, Baseline Ave.) turned out to be 3171.1 ml/cm^3; in series [5] (Amygdala, Co101244 block) it was 515.5 ml/cm^3; in series [5] (Amygdala, Self-block) it was 405.4 ml/cm^3; in series [5] (Cerebellum, Baseline Ave.), 1465.9 ml/cm^3; in series [5] (Cerebellum, Co101244 block) it was 426.4 ml/cm^3; in series [5] (Cerebellum, Self-block), 348.6 ml/cm^3. The “Normalized Total Volume” value in series [5] (Cingulate Cortex, Baseline Ave.) was determined as 2388.9 ml/cm^3; in series [5] (Cingulate Cortex, Co101244 block), 523.3 ml/cm^3; in series [5] (Cingulate Cortex, Self-block), 400.0 ml/cm^3; in series [5] (Frontal Cortex, Baseline Ave.), 2254.5 ml/cm^3; in series [5] (Frontal Cortex, Co101244 block), 562.0 ml/cm^3; in series [5] (Frontal Cortex, Self-block), 451.4 ml/cm^3. For the same compound, the “Normalized Total Volume” value in series [5] (Hippocampus, Baseline Ave.) stood at 2389.6 ml/cm^3; in series [5] (Hippocampus, Co101244 block) it was 465.1 ml/cm^3; in series [5] (Hippocampus, Self-block), 370.3 ml/cm^3; in series [5] (Insula, Baseline Ave.), 2314.2 ml/cm^3; in series [5] (Insula, Co101244 block), 542.6 ml/cm^3; in series [5] (Insula, Self-block), 408.1 ml/cm^3. The “Normalized Total Volume” value in series [5] (Occipital Lobe, Baseline Ave.) is reported as 1676.3 ml/cm^3; in series [5] (Occipital Lobe, Co101244 block), 484.5 ml/cm^3; in series [5] (Occipital Lobe, Self-block), 402.7 ml/cm^3; in series [5] (Parietal Lobe, Baseline Ave.) it was 2001.4 ml/cm^3; in series [5] (Parietal Lobe, Co101244 block) it was 538.8 ml/cm^3; in series [5] (Parietal Lobe, Self-block), 440.5 ml/cm^3. Also, the “Normalized Total Volume” value in series [5] (Striatum, Baseline Ave.) was determined as 1965.2 ml/cm^3; in series [5] (Striatum, Co101244 block), 573.6 ml/cm^3; in series [5] (Striatum, Self-block), 437.8 ml/cm^3; in series [5] (Temporal Lobe, Baseline Ave.) it was 1956.8 ml/cm^3; in series [5] (Temporal Lobe, Co101244 block), 476.7 ml/cm^3; in series [5] (Temporal Lobe, Self-block), 373.0 ml/cm^3. The “Normalized Total Volume” value came to 2385.1 ml/cm^3 in series [5] (Thalamus, Baseline Ave.); 596.9 ml/cm^3 in series [5] (Thalamus, Co101244 block); 445.9 ml/cm^3 in series [5] (Thalamus, Self-block); 1959.7 ml/cm^3 in series [5] (Whole Brain, Baseline Ave.); 511.6 ml/cm^3 in series [5] (Whole Brain, Co101244 block); 408.1 ml/cm^3 in series [5] (whole brain, self-block). Moreover, the “binding potential of whole brain, BPND” value was determined as 3.8 in series [5] (whole brain, Co101244) and 4.6 in series [6] (whole brain, self-block). The “time after radioligand injection from which V showed time stability” value in series [6] is not below 80 min. In addition, in series [3] (PET imaging in rats), the displacement is 65%. This compound had a preblocking in series [3] (PET imaging in rats) of 95%. Further, the reversibility of binding entry in series [3] (PET imaging in rats) is given as “reversible binding”. Also, the “washout of brain radioactivity” value in series [3] was “slow washout”. In series [3] (rats, within 5 minutes), the “brain radioactivity uptake (in words)” value is listed as “very high”.
Take `COc1ccc2c(c1)CCN(CCCCc1ccc(C)cc1)CC2O` (stereo not drawn) [Compound 4, 7-methoxy-3-(4-(4-methylphenyl)butyl)-2,3,4,5-tetrahydro-1H-benzo[d]azepin-1-ol]: the results for the Ki in series [4] (setting [7]) and in series [4] (setting [8]) were 31.3 nM and 4.9 nM, respectively. In addition, the “affinity for NR2B” value in series [4] is “in the nM range”. In addition, the inhibition at 10 µM in series [1] worked out at 89.7%; in series [2], 90.7%.
`COc1ccc(CCCCN2CCc3cc(OC)ccc3C(O)C2)cc1` (stereo not drawn) [Compound 3]: 10 µM produced 91.4% inhibition in series [2].
For `COc1ccc2c(c1)CCN(CCCCc1ccc3ccccc3c1)CC2O` (stereo not drawn) [Compound 2], the inhibition at 10 µM in series [1] amounted to 84.4%.
Regarding `COc1ccc2c(c1)CCN(CCCCc1ccc(SC)cc1)CC2O` (stereo not drawn) [Compound 9, 7-methoxy-3-(4-(4-(methylthio)phenyl)butyl)-2,3,4,5-tetrahydro-1H-benzo[d]azepin-1-ol], the Ki in series [4] (setting [7]) is 20 nM. Also, the “affinity for NR2B” value in series [4] is reported as “in the nM range”. The “effect of pretreatment” value in series [3] (setting [9]) was “blocked brain radioactivity uptake in a dose-dependent manner”. The displacement of radioligand entry in series [3] (rats) was “only slow and low displacement”.
Regarding `COc1ccc2c(c1)CCN(CCCCc1ccc(SC)cc1)CC2O` (stereo not drawn) [[^11C]NR2B-SMe, [^11C] 7-methoxy-3-(4-(4-(methylthio)phenyl)butyl)-2,3,4,5-tetrahydro-1H-benzo[d]azepin-1-ol], in series [3], the brain radioactivity uptake is 3.5 SUV and the “washout of brain radioactivity” value is “very low washout”.
